This is an account of results in patent US8916572B2, “Bis-quinazoline derivatives as inhibitors for epidermal growth factor receptor (EGFR) tyrosine kinase” (Tetranov International, Inc., priority 2012, dated 2014).

The assay has as its system human lung adenocarcinoma epithelial cell line A549. Nature of the assay: Growth inhibition in vitro of human tumor cell line A549 (MTT assay). Type of assay: cell-based. Conditions: for IC50: Homo sapiens, A549 cells, MTT assay, 24 hours incubation, read-out: IC 50, tumor cell growth inhibition in human tumor cell line A549. As to the method: Growth Inhibition In Vitro of Human Tumor Cell Line A549 by Examples:
Human lung adenocarcinoma epithelial cell line A549 was obtained from American Type Culture Collection (ATCC) and maintained in Dulbecco modified eagle medium supplemented with 10% fetal bovine serum. MTT assay was performed using the MTT cell proliferation assay kit (ATCC). Briefly, 3×10^3 A549 cells/well were plated in 96 well plates overnight and then incubated with different concentrations of tested compounds or vehicle controls for 24 hours. Ten μl of MTT reagent was added to each well for 120 min. The formazan crystal was dissolved with MTT detergent, and the OD value was measured at 570 nm using a SpectraMax M3 microplate reader (Molecular Devices). Data were normalized to vehicle controls and processed using GraphPad Prism 5.00.
For orientation: Tetrazolium assays rely on reduction of a dye to a coloured formazan, in cell work by metabolically active cells.

For `C#Cc1cccc(Nc2ncnc3cc(OCCOC)c(OCCOC)cc23)c1` [Erlotinib, reference compound], the IC50 turned out to be 9.9 µM.
Same read-out and setting: the same measure for `C#Cc1cccc(Nc2ncnc3cc(OCCOCCOCCOCCOc4cc5ncnc(Nc6cccc(C#C)c6)c5cc4OCCOC)c(OCCOC)cc23)c1` [dimer 1, 7,7′-((((oxybis(ethane-2,1-diyl))bis(oxy))bis(ethane-2,1-diyl))bis(oxy))bis(N-(3-ethynylphenyl)-6-(2-methoxyethoxy)quinazolin-4-amine)]: more than 80 µM.
As for `C#Cc1cccc(Nc2ncnc3cc(OCCOC)c(OCCOCCOCCOCCOc4cc5c(Nc6cccc(C#C)c6)ncnc5cc4OCCOC)cc23)c1` [dimer 2, 6,6′-((((oxybis(ethane-2,1-diyl))bis(oxy))bis(ethane-2,1-diyl))bis(oxy))bis(N-(3-ethynylphenyl)-7-(2-methoxyethoxy)quinazolin-4-amine)], the IC50 was 5.1 µM. Moreover, the “in vitro activity compared to Erlotinib in cell line A549” value (human lung adenocarcinoma epithelial cell line A549, comparison in words) is “higher activity than Erlotinib”.
In the case of `C#Cc1cccc(Nc2ncnc3cc(OCCOCCOCCOCCOc4cc5c(Nc6cccc(C#C)c6)ncnc5cc4OCCOC)c(OCCOC)cc23)c1` [dimer 3, N-(3-ethynylphenyl)-6-(2-(2-(2-(2-((4-((3-ethynylphenyl)amino)-6-(2-methoxyethoxy)quinazolin-7-yl)oxy)ethoxy)ethoxy)ethoxy)ethoxy)-7-(2-methoxyethoxy)quinazolin-4-amine], the IC50 was more than 80 µM.
